Laboratory results as given in ChEMBL document CHEMBL4414630, “Cyclobutastellettolides A and B, C19 Norterpenoids from a Stelletta sp. Marine Sponge” (J Nat Prod, 2019).

Columns and labels:
Peritoneal macrophage [1] = experiment: Induction of ROS generation in BALB/c mouse peritoneal macrophages at 10 uM incubated for 1 hr by H2DCF-DA staining based fluorescence analysis relative to control; format: functional
HT-29 = experiment: Cytotoxicity against human HT-29 cells assessed as inhibition of cell viability incubated for 24 hrs by MTS assay; format: cell-based; details: HT-29, 24 h
N2a = experiment: Cytotoxicity against mouse Neuro2a cells assessed as inhibition of cell viability incubated for 24 hrs by MTT assay; format: cell-based
DLD-1 = experiment: Cytotoxicity against human DLD1 cells assessed as inhibition of cell viability incubated for 24 hrs by MTS assay; format: cell-based; details: DLD-1, 24 h
Peritoneal macrophage [2] = experiment: Induction of ROS generation in BALB/c mouse peritoneal macrophages at 1 uM incubated for 1 hr by H2DCF-DA staining based fluorescence analysis relative to control; format: functional

`CC1(C)C(=O)CC[C@@]2(C)[C@H]1CC[C@]1(C)C(=O)[C@@]3(C)OC(=O)C[C@@]213` was tested, and the Activity (Peritoneal macrophage [1]) was 93%, the IC50 (HT-29) was over 40 µM and the IC50 (N2a) was over 40 µM. It also gave an IC50 (DLD-1) of over 40 µM and an Activity (Peritoneal macrophage [2]) of 55%.

`CC(=O)O[C@H]1CC[C@@]2(C)[C@@H](CC[C@]3(C)C(=O)[C@@]4(C)OC(=O)C[C@@]234)C1(C)C` showed an Activity (Peritoneal macrophage [1]) of 90%, an IC50 (HT-29) of over 40 µM and an IC50 (N2a) of over 40 µM. It also gave an IC50 (DLD-1) of over 40 µM and an Activity (Peritoneal macrophage [2]) of 73%.
